The structures appear in SMILES notation. Entries after “also recorded” stand apart in the source; their conditions may differ.

This test deals with mouse. Kind of test: mouse marble burying paradigm. Type of test: in vivo. How it is done: FIGS. 3A-3D show mouse marble burying 15 minutes after s.c. dosing of 1-(3-Pyridyl)-homopiperazine (Compound 1F of WO 99/21834) as cognition enhancer, and 30 minutes after p.o. dosing of 3-(3-Pyridin-3-yl-[1,2,4]oxadiazol-5-yl)-benzonitrile (Compound 4.15) as positive allosteric modulator: […]

For `c1cncc(N2CCCNCC2)c1` [Compound 1F of WO 99/21834, 1-(3-Pyridyl)-homopiperazine, reference compound], the ED50 – broadly, the dose at which the effect has come halfway, by size or by number of responders – (Mus musculus, sc, 0.25 h, read-out: ED50, mouse marble burying) was determined as 0.56 mg/kg.

With `N#Cc1cccc(-c2nc(-c3cccnc3)no2)c1` [Compound 4.15, 3-(3-Pyridin-3-yl-[1,2,4]oxadiazol-5-yl)-benzonitrile], under “alone, dosed p.o. at 3 and 10 mg/kg, 30 minutes after dosing (FIG. 3A)”, the “effect in mouse marble burying, positive allosteric modulator alone” value is “no effect; also recorded: inactive”.

(Values after US20100234349A1, “PHARMACEUTICAL COMBINATIONS OF A NICOTINE RECEPTOR MODULATOR AND A COGNITIVE ENHANCER” (priority 2006, published 2010).)
